According to patent US5714361A, “Phosphatase/phosphodiesterase enzyme inhibitors and methods” (priority 1994, dated 1998):

Assays:
[1] = molecular target: human prostatic acid phosphatase (PAP) (Homo sapiens, UniProt P15309); assay: Time-dependent inactivation of prostatic acid phosphatase (residual activity with PNPP); format: biochemical; details: for time-dependent inactivation of PAP: incubation with PAP (2 μg/mL), 100 mM sodium acetate buffer pH 5.0, 25° C.; for protection of PAP against inactivation by FMPP: competitive inhibitors of PAP added
Method: Reactions were performed by incubating 1 or 9 with PAP (2 μg/mL) in 100 mM sodium acetate buffer pH 5.0 at 25° C. Residual PAP activity was determined by removing 20 μL aliquots and adding them to a 1 mL solution of 3.0 mM p-nitrophenyl phosphate (PNPP) in 100 mM sodium acetate buffer pH 5.0. After 5 minutes in PNPP, the reactions were quenched with 100 μL of 1.25N NaOH. p-Nitrophenoxide concentration was quantitated from the absorbance at 405 nm, using an extinction coefficient of 18,000 M-1 cm-1. (A) Residual PAP activity after incubation with varying concentrations of 1; 5.0 mM (filled circles), 500 μM (open squares), 125 μM (open triangles), 70 μM (filled diamonds), and 50 μM (open circles). (B) Residual PAP activity after treatment with 6.6 mM FMPP (open triangles), or 23 mM of the phosphonate (15 X Ki) (closed circles).
In this experimental, human prostatic acid phosphatase (PAP) was used as a model enzyme. […] This phosphatase is an important diagnostic marker for prostate cancer, and there is evidence that it may be involved in the regulation of androgen receptor activity in prostate cells.

YOP 51 = YOP 51 (Yersinia enterocolitica, UniProt P15273); assay: Time-dependent inactivation testing with YOP 51; format: biochemical; details: incubated in a fashion similar to FIG. 1
YOP 51, sequence (P15273 whole entry): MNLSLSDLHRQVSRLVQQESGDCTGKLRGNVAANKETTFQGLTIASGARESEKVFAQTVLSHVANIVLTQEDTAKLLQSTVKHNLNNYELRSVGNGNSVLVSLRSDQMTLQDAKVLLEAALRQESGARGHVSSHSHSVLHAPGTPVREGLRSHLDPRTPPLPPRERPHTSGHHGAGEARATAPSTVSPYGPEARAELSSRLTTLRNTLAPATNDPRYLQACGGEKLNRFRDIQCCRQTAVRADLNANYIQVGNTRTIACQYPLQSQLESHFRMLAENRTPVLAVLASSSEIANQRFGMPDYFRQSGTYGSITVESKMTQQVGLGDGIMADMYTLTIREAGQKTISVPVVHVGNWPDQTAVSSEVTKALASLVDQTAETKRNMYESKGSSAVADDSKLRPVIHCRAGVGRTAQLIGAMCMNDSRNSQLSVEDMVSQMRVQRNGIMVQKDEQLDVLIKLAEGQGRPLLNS

human prostatic acid phosphatase (PAP), sequence (P15309 33-386): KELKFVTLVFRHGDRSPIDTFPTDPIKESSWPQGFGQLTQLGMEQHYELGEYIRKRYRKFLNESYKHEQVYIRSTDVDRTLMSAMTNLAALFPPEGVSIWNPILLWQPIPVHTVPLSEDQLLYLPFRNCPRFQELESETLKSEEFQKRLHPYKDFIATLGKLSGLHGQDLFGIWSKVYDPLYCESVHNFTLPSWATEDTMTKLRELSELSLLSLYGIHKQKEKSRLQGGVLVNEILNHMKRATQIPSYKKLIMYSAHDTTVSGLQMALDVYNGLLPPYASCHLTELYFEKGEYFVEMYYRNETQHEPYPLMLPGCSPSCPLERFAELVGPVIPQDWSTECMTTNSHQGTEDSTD

## O=P(O)(O)Oc1ccc(CF)cc1 [FMPP, 4-(fluoromethyl)phenyl phosphate]
[1]; read-out: Ki (saturation kinetics of the inactivation process), purified PAP
  KI (inactivation): 150 µM

## C=C(Br)OP(=O)(OCC)OCC [XVI, Diethyl 1-Bromovinyl Phosphate]
YOP 51
  inactivation of YOP 51: succesful inactivation of the enzyme

## O=P(O)(O)Oc1ccc(CBr)cc1 [bromo analogue of FMPP]
[1]
  time-dependent inactivation of PAP: proved to inactivate the PAP enzyme

## O=P(O)(O)Oc1ccc(CCl)cc1 [chloro analogue of FMPP]
[1]
  time-dependent inactivation of PAP: proved to inactivate the PAP enzyme

## O=P(O)(O)O [inorganic phosphate, reference compound]
[1]
  protection of PAP against inactivation by FMPP: protect against inactivation

## O=[N+]([O-])c1cc(CCl)ccc1OP(=O)(O)O [ortho-nitro chloro analogue of FMPP]
[1]
  potency of PAP inactivation relative to FMPP or its analogues: substantially greater potency
  time-dependent inactivation of PAP: succesfully inactivated the PAP enzyme

## O=C(O)C(O)C(O)C(=O)O (centres unmarked) [tartaric acid, reference compound]
[1]
  protection of PAP against inactivation by FMPP: protect against inactivation
